Laboratory results taken from US10894794B1, “Substituted [1,2,4]triazolo[4,3-a]pyrazines as antidiabetics” (King Abdulaziz University, priority 2019, dated 2021).
Marks after values point to notes of the source that are not given here.

Columns and labels:
Format in all cases: in vivo
[1] = tested on: STZ-diabetic mice; assay: Fasting blood glucose of diabetic mice during six days of treatment; details: for activity in controlling the rise of blood glucose levels in streptozotocin diabetic animals (in words) / control of fasting blood sugar compared with sitagliptin and the other compounds (in words): 50 mg/kg/day; for activity in controlling the rise of blood glucose levels in streptozotocin diabetic animals (in words): 6-day interval; for control of fasting blood sugar compared with sitagliptin and the other compounds (in words): 6 days; for Blood glucose level, fasting: 50 mg/kg/day oral, diabetic mice, mean ± SEM
Description: Our objective was to test the efficacy of the synthesized compounds for their potential to reduce blood glucose in STZ-diabetic mice. The synthesized compounds Nos. 128, 129, 130, 131,140, 142 were expected to act through the inhibition of the DPP-IV enzyme, which is responsible for the degradation of the entero-peptide GLP-I. In turn, GLP-I increases insulin and decreases glucagon release from the pancreatic islets (β and α-cells respectively). So this part of the project was designed to study the effect of the synthesized gliptin simulated compounds on blood glucose levels and their efficacy to increase glucose utilization in diabetic mice through: • a. The effect of the tested compounds in a dose of 50 mg/kg/day on fasting blood glucose blood levels of diabetic mice during six days of treatment. • b. Oral glucose tolerance test (OGTT) through oral glucose loading, 2 h after treatment with single oral dose (50 mg/kg) of the tested compounds in 14 h overnight fasted mice. • c. OGTT through oral glucose loading, 2 h after treatment with the 6th oral dose (50 mg/kg) of the tested compounds in 14 h overnight fasted mice. • d. The effect of the pretreatment with the tested compounds at an oral dose of 50 mg/kg on blood glucose levels, 3 h before and 3 h after meal feeding (feeding for one hour only, then food was removed immediately) in 14 h overnight-fasted diabetic mice.
(§1) Blood samples were collected from the tail vein and the blood glucose level was determined. Curves of blood glucose levels (mg/dL) versus the time intervals (min) were constructed and the area under the curves (AUCs) were calculated by the method of calculation embedded in GraphPad Prism® v. 5.0 (GraphPad Software, San Diego, Calif., USA). AUCs of the curves of the different groups were compared and tested for significance against control groups.
All data are presented as means±SEM. Statistical significance was evaluated by analysis of variance (ANOVA) followed by Tukey-Kramer's post hoc test for multiple comparisons. The “t” of the paired data was used to test the significance of the values of the fasting blood glucose compared to the values before treatment. Statistical significance was accepted at a level of p<0.05.

[2] = tested on: 14 h overnight fasted diabetic mice; assay: Oral glucose tolerance test (OGTT) after single dose; details: for glucose-lowering activity in OGTT compared with sitagliptin (in words): single dose 50 mg/kg; for Relative potency to sitagliptin (OGTT AUC) / AUC in OGTT, % change from diabetic control / AUC in OGTT, Δ from diabetic control / AUC in OGTT, X (arithmetic mean): single oral dose 50 mg/kg; for AUC in OGTT, X (arithmetic mean): AUC 0-120 min
Description: The oral glucose tolerance test was done in 14 h overnight fasted diabetic mice that were pretreated with a single oral dose of the tested compounds. Each of the tested agents was suspended in sodium carboxymethyl cellulose (CMC-Na) (1% in distilled water) and the dosing volume was adjusted to 10 ml/kg body weight per mouse. Then an oral glucose load was administered (2 g/kg) 2 h after drug treatment. Blood glucose levels were determined using the Accu-check Go® (Roche Diagnostics, Michigan, USA). Blood samples were collected just before drug administration (Fasting Blood glucose), then 2 h after drug treatment and before glucose loading. Blood samples collection was continued at 20, 40, 60 and 120 min intervals after glucose loading.
Animals were distributed between 17 groups (n=6) as follow: • a. Group 1: Animals were 14 h overnight-fasted normoglycemic mice and vehicle-treated (1% CMC-Na) at a dose of 10 ml/kg. • b. Group 2: Overnight fasted diabetic mice received the vehicle (1% CMC-Na) at a dosing volume of 10 ml/kg and served as a negative control. • c. Group 3: Overnight fasted diabetic mice received sitagliptin at a dose of 50 mg/kg in 1% CMC (in a volume of 10 ml/kg) and served as positive control. • a. Groups 4-17: Animals of these groups were overnight fasted diabetic mice received the tested compounds 128, 129, 130, 131, at a dose of 50 mg/kg in 1% CMC (volume of 10 ml/kg).

[3] = tested on: overnight fasted diabetic mice; assay: OGTT after multiple doses (6 consecutive days); details: for AUC in OGTT, % change from diabetic control / AUC in OGTT, Δ from diabetic control / Relative potency to sitagliptin (OGTT AUC) / AUC in OGTT, X (arithmetic mean): 50 mg/kg oral for six days; for AUC in OGTT, X (arithmetic mean): 2 h before glucose loading, AUC 0-120 min
Description: The tested compounds were given daily by oral gavage for 6 consecutive days. On day 6, the overnight fasted diabetic mice were pretreated with the 6th oral dose of the tested compounds. Then an oral glucose was loaded (2 g/kg/10 ml b.w.) 2 h after drug treatment. Blood glucose levels were determined using the Accu-check Go® (Roche Diagnostics, Michigan, USA). Samples were collected just before drug administration (Fasting Blood glucose), then 2 h after drug treatment and before glucose administration. Sample collection was continued at 20, 40, 60 and 120 min intervals after glucose loading.
• b. Group 1: Animals of this group are 14 h overnight-fasted normoglycemic mice received the vehicle (1% CMC-Na) at a dosing volume of 10 ml/kg/day for six consecutive days. • c. Group 2: Overnight-fasted diabetic mice received the vehicle (1% CMC-Na) at a dosing volume of 10 ml/kg/day for six consecutive days and served as a negative control. • d. Group 3: Overnight-fasted diabetic mice received sitagliptin at a dose of 50 mg/kg/day for six consecutive days and served as positive control. • e. Groups 4-17: Animals in these groups were overnight-fasted diabetic mice and received the tested compounds 128, 129, 130, 131, at a dose of 50 mg/kg/day for six consecutive days (volume of 10 ml/kg). Effect on Blood Glucose Level after Introduction of Food for One Hour (≈Meal Tolerance Test) Rational of the Test

[4] = tested on: 14 h overnight-fasted diabetic mice; assay: Blood glucose after introduction of food for one hour (meal tolerance test); details: for antihyperglycemic activity after introduction of food (blood glucose rise and total AUC(0-180), in words): 50 mg/kg, 3 h before introduction of food; for Area under the curve AUC(0-180) after meal feeding: Day 1, 50 mg/kg oral, 3 hr pretreated
Description: The rational of this test was to determine the ability of the tested compounds to modulate glucose utilization after the introduction of food, after 3 h of drug administration to 14 h overnight-fasted mice (feeding with normal diet was done for 1 hr only, then food was removed during the remaining time of the test). This model is analogous to oral glucose tolerance tests (OGTT) used clinically to evaluate glycemic control, except that the meal was composed of fats, proteins and carbohydrates, and thus was a more realistic representation of the nutritional makeup of normal food. The main purpose is that during meal digestion, food contents e.g. carbohydrates, proteins and fats, were reported to cause an increase in the production of the GLP-I from the L-cells in ileum and colon. The produced GLP-I goes into circulation directly and affects insulin secretion from pancreatic β-cells. Both the GPL-I and insulin levels are expected to be high especially in the presence of a […] inhibitor.
Animals were Distributed Between 17 Groups (n=6) as Follows: • a. Group 1. Animals of this group were overnight-fasted normoglycemic mice and received the vehicle (1% CMC-Na) at a volume of 10 ml/kg/day for 4 consecutive days. • b. Group 2: overnight-fasted diabetic mice received the vehicle (1% CMC-Na) at a volume of 10 ml/kg/day for 4 consecutive days and served as a negative control. • c. Group 3: overnight fasted diabetic mice received sitagliptin at a dose of 50 mg/kg/day for 4 consecutive days in 1% CMC (in a volume of 10 ml/kg) and served as positive control. • d. Groups 4-19: Animals of these groups were overnight-fasted diabetic mice and received the tested compounds 128, 129, 130, 131,140, 142 at a dose of 50 mg/kg/day for 4 consecutive days in 1% CMC (volume of 10 ml/kg). Food was introduced for one hour only then food was removed immediately. Blood glucose levels were determined just before and 3 h after drug administration and then at 0, 60, 120 and 180 min after meal. Blood Sampling and Blood Glucose Determination
as §1

Structure (SMILES) | activity in controlling the rise of blood glucose levels in streptozotocin diabetic animals (in words) [1] | control of fasting blood sugar compared with sitagliptin and the other compounds (in words) [1] | Blood glucose level, fasting ([1]; Day 4) [mg/dL] | Blood glucose level, fasting ([1]; Day 5) [mg/dL] | Blood glucose level, fasting ([1]; Day 6) [mg/dL] | glucose-lowering activity in OGTT compared with sitagliptin (in words) [2] | Relative potency to sitagliptin (OGTT AUC) [2] | AUC in OGTT, % change from diabetic control ([2]; 2 h before glucose loading) [%] | AUC in OGTT, Δ from diabetic control ([2]; 2 h before glucose loading) [mg·min/dL] | AUC in OGTT, X (arithmetic mean) ([2]; 2 h before glucose loading) | AUC in OGTT, % change from diabetic control [3] [%] | AUC in OGTT, Δ from diabetic control [3] [mg·min/dL] | Relative potency to sitagliptin (OGTT AUC) [3] | AUC in OGTT, X (arithmetic mean) [3] | antihyperglycemic activity after introduction of food (blood glucose rise and total AUC(0-180), in words) [4] | Area under the curve AUC(0-180) after meal feeding [4] | control of fasting blood sugar compared with sitagliptin and the other compounds (in words) ([1]; listed as 131) | relative potency in OGTT compared with sitagliptin (in words) ([3]; 6 consecutive days, 50 mg/kg) | reduction in the total AUC compared to the diabetic control mice ([2]; single dose, 2 h before glucose loading, AUC 0-120) [%]
O=C(NCC(=O)N1CCn2c(nnc2C(F)(F)F)C1)c1cccc(Cl)c1 [GLP-128] | significant activity | least effective | 195.00 ± 27.49 | 200.60 ± 23.21 | 188.60 ± 15.86 | higher glucose-lowering activity than sitagliptin | 1.2 | −29.15 | -14887 | 36178* mg · dL^−1 · min | −11.93 | -6287 | 0.32 | 46368 mg·min/dL | significant antihyperglycemic activity | 69336 ± mg · dL^−1 · min | – | – | –
O=C(NCCC(=O)N1CCn2c(nnc2C(F)(F)F)C1)c1cccc(Cl)c1 [GLP-129] | significant activity | comparable to that of sitagliptin | – | – | – | less potent than sitagliptin | 0.45 | −10.93 | -5585 | 45480 mg·min/dL | −11.76 | -6197 | 0.31 | 46458 mg·min/dL | significant antihyperglycemic activity | 73248 ± mg · dL^−1 · min | – | – | –
O=C(NCC(=O)N1CCn2c(nnc2C(F)(F)F)C1)c1ccc(Cl)cc1 [GLP-131] | significant activity | most consistent and extended activities | – | – | – | higher glucose-lowering activity than sitagliptin | 1.52 | −36.88 | -18835 | 32230* mg · dL^−1 · min | −49.59 | -26113 | 1.31 | 26542* mg · dL^−1 · min | significant antihyperglycemic activity | 56340 ± mg · dL^−1 · min | comparable to that of sitagliptin | comparable or higher relative potency than sitagliptin | –
N[C@@H](CC(=O)N1CCn2c(nnc2C(F)(F)F)C1)Cc1cc(F)c(F)cc1F [Sitagliptin, sitagliptin, reference compound] | – | – | – | – | – | – | 1 | −24.20 | -12362 | 38703* mg · dL^−1 · min | −37.85 | -19932 | 1 | 32723 mg·min/dL | significant antihyperglycemic activity | 51776 ± mg · dL^−1 · min | – | – | 24.2
